Entries after “also recorded” stand apart in the source; their conditions may differ.
Assays:
DPP-IV = DPP-IV (Homo sapiens, UniProt P27487); assay: In vitro plasma stability of GLP-1 peptides secreted from human cells; settings: cell culture supernatant, human lymphocyte enriched plasma, 37° C., 3 or additionally 6 and 9 hours
Rin-5F cells = assay: Anti-apoptotic efficacy, cycloheximid-induced apoptosis; type: cell-based, rat; settings: 24 hours
Experimental: 40.000 Rin-5F cells were seeded per 96 well and cultivated for 2 days in RPMI supplemented with 1% L-Glutamin and 10% fetal calf serum. […] After 24 hours cell viability is quantified using AlamarBlue.

[1] = system: patients with AMI and severe systolic dysfunction; settings: GLP-1 infusion added to standard therapy; cited from earlier work

Sequence of DPP-IV (P27487 whole entry): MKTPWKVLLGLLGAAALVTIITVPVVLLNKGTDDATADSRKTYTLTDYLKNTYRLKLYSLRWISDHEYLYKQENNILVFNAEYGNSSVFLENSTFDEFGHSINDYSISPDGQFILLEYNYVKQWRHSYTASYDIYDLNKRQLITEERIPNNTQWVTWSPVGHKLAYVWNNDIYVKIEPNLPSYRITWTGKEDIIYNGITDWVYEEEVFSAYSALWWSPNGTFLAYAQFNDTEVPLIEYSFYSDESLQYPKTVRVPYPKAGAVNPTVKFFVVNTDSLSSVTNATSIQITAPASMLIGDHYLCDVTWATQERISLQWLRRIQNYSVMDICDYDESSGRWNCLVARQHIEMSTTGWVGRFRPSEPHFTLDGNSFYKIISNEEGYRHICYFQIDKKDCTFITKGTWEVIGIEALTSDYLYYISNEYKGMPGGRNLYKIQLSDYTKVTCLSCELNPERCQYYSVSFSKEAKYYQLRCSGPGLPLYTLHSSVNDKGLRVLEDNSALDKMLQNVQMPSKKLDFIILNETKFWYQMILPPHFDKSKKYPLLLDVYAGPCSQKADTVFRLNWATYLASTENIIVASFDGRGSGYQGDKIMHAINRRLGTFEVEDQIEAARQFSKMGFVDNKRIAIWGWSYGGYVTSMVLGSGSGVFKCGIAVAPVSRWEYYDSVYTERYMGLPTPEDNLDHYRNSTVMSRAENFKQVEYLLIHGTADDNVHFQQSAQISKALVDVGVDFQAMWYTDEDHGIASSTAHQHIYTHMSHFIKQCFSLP

Substance: GLP1(7-37)-IP2-GLP1(7-37) [construct #217]
- stability to DPP-IV degradation in plasma (active GLP-1 ELISA) (DPP-IV): more resistant to degradation; also recorded: nearly fully stabilized to DPP-IV degradation

Substance: GLP-1(7-37)-IP2-GLP-1(7-37) [CM1]
- cell viability (Rin-5F cells; CHX 10 μg/ml and 100 μg/ml, different concentrations of CM1): significant (p<0.01) increase of cell viability
- anti-apoptotic effect (cell viability, AlamarBlue) (Rin-5F cells; cycloheximid, serum-free, 1 nM CM1, p<0.01): significant anti-apoptotic effect

Substance: GLP-1(7-37)-IP2-extended with 11 AA [construct #317]
- stability to DPP-IV degradation in plasma (active GLP-1 ELISA) (DPP-IV): more resistant to degradation

Substance: Glucagon Like Peptide-1 (HAEGTFTSDVSSYLEGQAAKEFIAWLVKGRG) [GLP-1, naturally occurring incretin, infused in literature studies]
- regional and global LV function [1]: improved regional and global LV function

Reference: patent US20110236431A1, “TREATMENT OF ACUTE MYOCARDIAL INFARCTION (AMI) USING ENCAPSULATED CELLS ENCODING AND SECRETING GLP-1 PEPTIDES OR ANALOGS THEREOF” (BIOCOMPATIBLES UK LTD., priority 2008, published 2011)
